In the assay the test system is HCT116 cells. Description: Nicotinic Acid Rescue Cytotoxicity Assay, first method: cytotoxicity to HCT116 cells in presence and absence of 10 μM nicotinic acid. It is filed as cell-based. To be noted: Homo sapiens, HCT-116, 72 h. On the procedure: Additionally, Nicotinic Acid (NA) rescue of cytotoxicity of Nampt inhibitors was assessed by two distinct methods. In the first method, Nampt1 inhibitor cytotoxicity was evaluated in the presence and absence of exogenous nicotinic acid (NA) at a fixed concentration. […] Twenty four hours after cells were plated, the media was removed and replaced with media containing 10 μM nicotinic acid. Compounds were then immediately added. Cell viability was then assessed at 72 h.
Using the first of the two assays described above, the 90 compounds shown in Table 5, below, were tested for cytotoxicity towards Naprt1-proficient HCT116 cells, and for the ability of NA to block the observed cytotoxicity (or “rescue” the cells from the cytotoxic activity of the tested compound). The compounds listed are referred to by a unique rescue analysis example number (i.e., R1, R2 . . . R90) that is used as a reference number in Table 4, in which the results of the cytotoxicity and rescue assays are presented.

Where [1] appears, read: absence of nicotinic acid, read-out: HCT116 72 h cytotoxicity.
Where [2] appears, read: presence of 10 μM nicotinic acid, read-out: HCT116 72 h cytotoxicity with 10 μM Nicotinic Acid.

Like-named read-outs stand apart in the source and are kept apart here.

Consider `CC(C)CCN(Cc1ccccc1Cl)c1ccc(C(=O)NCc2cccnc2)cc1` [Example R42, 4-[(2-Chlorobenzyl)(3-methylbutyl)amino]-N-(pyridin-3-ylmethyl)benzamide], for which the IC50 is 387 nM under setting [1] and more than 10000 nM under setting [2].
In the same order, the values of `O=C(NCc1cccnc1)Nc1ccc(NS(=O)(=O)c2ccccc2)cc1` [Example R32, N-(4-{[(Pyridin-3-ylmethyl)carbamoyl]amino}phenyl)benzene-sulfonamide] are 194 nM and more than 50000 nM.
On to `CC(=O)Nc1cccc(-c2ccccc2CNc2ccc(C(=O)NCc3cccnc3)cc2)c1` [Example R26, 4-({[3′-(Acetylamino)biphenyl-2-yl]methyl}amino)-N-(pyridin-3-ylmethyl)benzamide], for which the IC50 was found to be 26.9 nM under setting [1] and 25000 nM under setting [2].
In the same order, the values of `N#C/N=C(/NCCCCCCOc1ccc(Cl)cc1)Nc1ccncc1` [Example R5, 1-[6-(4-Chlorophenoxy)hexyl]-2-cyano-3-pyridin-4-ylguanidine] are 1.6 nM and more than 10000 nM.
On the same counts, the results for `O=C(NCc1cccnc1)Nc1ccc(COc2ccccc2-c2ccncc2)cc1` [Example R81, 1-(Pyridin-3-ylmethyl)-3-(4-{[2-(pyridin-4-yl)phenoxy]methyl}phenyl)urea] are 5.4 nM and more than 5000 nM.
On the same counts, the results for `O=C(NCc1cccnc1)c1ccc(NC(=S)Nc2cccc(OCc3ccccc3)c2)cc1` [Example R15, 4-({[3-(Benzyloxy)phenyl]carbamothioyl}amino)-N-(pyridin-3-ylmethyl)benzamide] are 4690 nM and more than 50000 nM.
Consider `N#C/N=C(/NCCCCNC(=O)COc1ccccc1-c1ccccc1)Nc1ccncc1` [Example R78, 2-(Biphenyl-2-yloxy)-N-(4-{[(Z)-(cyanoamino)(pyridin-4-ylamino)methylidene]amino}butyl)acetamide], for which the IC50 runs as follows: under setting [1], 0.5 nM; under setting [2], more than 5000 nM.
`N#C/N=C(/NCCCCCCOc1ccc(Cl)cc1)NCc1cccnc1` [Example R40, 1-[6-(4-Chlorophenoxy)hexyl]-2-cyano-3-(pyridin-3-ylmethyl)guanidine]: the IC50 was 1090 nM under setting [1] and more than 10000 nM under setting [2].
In the same order, the values of `CCOC(=O)c1c[nH]c2ccc(C(=O)Nc3ccc(C(=O)NCc4cccnc4)cc3)cc2c1=O` [Example R53, ethyl 4-oxo-6-({4-[(pyridin-3-ylmethyl)carbamoyl]phenyl}carbamoyl)-1,4-dihydroquinoline-3-carboxylate] are 6.8 nM and more than 10000 nM.
In the same order, the values of `CC(C)c1cccc(-c2ccccc2CNc2ccc(C(=O)NCc3cccnc3)cc2)c1` [Example R25, 4-({[3′-(Propan-2-yl)biphenyl-2-yl]methyl}amino)-N-(pyridin-3-ylmethyl)benzamide] are 8330 nM and 37000 nM.
On the same counts, the results for `O=C(NCCCCCCOc1ccc(Cl)cc1)Nc1ccncc1` [Example R79, 1-[6-(4-Chlorophenoxy)hexyl]-3-pyridin-4-ylurea] are 88.9 nM and more than 5000 nM.
For the compound `C#CCN(Cc1cc2c(=O)n(C)c(CN3CCN(C)CC3)nc2cc1Cl)c1ccc(C(=O)NCc2cccnc2)cc1` [Example R1], the IC50 by setting is: under setting [1], 0.7 nM; under setting [2], more than 10000 nM.
With `O=C(NCc1cccnc1)Nc1ccc(NS(=O)(=O)c2cc(Cl)ccc2Cl)cc1` [Example R74, 2,5-dichloro-N-(4-{[(pyridin-3-ylmethyl)carbamoyl]amino}phenyl)benzene-sulfonamide], the IC50 under setting [1] is 2.3 nM and the IC50 under setting [2] was more than 5000 nM.
In the same order, the values of `C#CCN(Cc1cc2c(=O)n(C)c(CN3CCN(C)CC3)nc2cc1Cl)c1ccc(C(=O)NCc2ccccn2)cc1` [Example R4, 4-[({7-Chloro-3-methyl-2-[(4-methylpiperazin-1-yl)methyl]-4-oxo-3,4-dihydroquinazolin-6-yl}methyl)(prop-2-yn-1-yl)amino]-N-(pyridin-2-ylmethyl)benzamide] are 276 nM and more than 10000 nM.
